In patent US6248586A, “Antisense modulation of PKA catalytic subunit C-alpha expression” (Isis Pharmaceuticals, Inc., priority 1999, dated 2001):

Test system: human PKA catalytic subunit C-alpha mRNA
Assay: Inhibition of PKA catalytic subunit C-alpha mRNA levels in oligonucleotide-treated cells, quantitative real-time PCR
Assay type: cell-based
Design: concentration or dose not given beside the values
Method: when cells reached 80% confluency, they were treated with oligonucleotide. For cells grown in 96-well plates, wells were washed once with 200 μL. OPTI-MEM™-1 reduced-serum medium (Gibco BRL) and then treated with 130 μL of OPTI-MEM™-1 containing 3.75 μg/mL LIPOFECTIN™ (Gibco BRL) and the desired concentration of oligonucleotide. After 4-7 hours of treatment, the medium was replaced with fresh medium. Cells were harvested 16-24 hours after oligonucleotide treatment.
Poly(A)+ mRNA was isolated according to Miura et al., Clin. Chem., 1996, 42, 1758-1764. Other methods for poly(A)+ mRNA isolation are taught in, for example, Ausubel, F. M. et al., Current Protocols in Molecular Biology, Volume 1, pp. 4.5.1-4.5.3, John Wiley & Sons, Inc., 1993. Briefly, for cells grown on 96-well plates, growth medium was removed from the cells and each well was washed with 200 μL cold PBS. 60 μL lysis buffer (10 mM Tris-HCl, pH 7.6, 1 mM EDTA, 0.5 M NaCl, 0.5% NP-40, 20 mM vanadyl-ribonucleoside complex) was added to each well, the plate was gently agitated and then incubated at room temperature for five minutes. 55 μL of lysate was transferred to Oligo d(T) coated 96-well plates (AGCT Inc., Irvine Calif.). Plates were incubated for 60 minutes at room temperature, washed 3 times with 200 μL of wash buffer (10 mM Tris-HCl pH 7.6, 1 mM EDTA, 0.3 M NaCl). After the final wash, the plate was blotted on paper towels to remove excess wash buffer and then air-dried for 5 minutes. 60 μL of elution buffer (5 mM Tris-HCl pH 7.6), preheated to 70° C. was added to each well, the plate was incubated on a 90° C. hot plate for 5 minutes, and the eluate was then transferred to a fresh 96-well plate.
Quantitat:ion of PKA catalytic subunit C-alpha mRNA levels was determined by real-time quantitative PCR using the ABI PRISM™ […] Sequence Detection System (PE-Applied Biosystems, Foster City, Calif.) according to manufacturer's instructions. This is a closed-tube, non-gel-based, fluorescence detection system which allows high-throughput quantitation of polymerase chain reaction (PCR) products in real-time. As opposed to standard PCR, in which amplification products are quantitated after the PCR is completed, products in real-time quantitative PCR are quantitated as they accumulate. This is accomplished by including in the PCR reaction an oligonucleotide probe that anneals specifically between the forward and reverse PCR primers, and contains two fluorescent dyes. A reporter dye (e.g., JOE, FAM, or VIC, obtained from either Operon Technologies Inc., Alameda, Calif. or PE-Applied Biosystems, Foster City, Calif.) is attached to the 5' end of the probe and a quencher dye (e.g., TAMRA, obtained from either Operon Technologies Inc., Alameda, Calif. or PE-Applied Biosystems, Foster City, Calif.) is attached to the 3' end of the probe. When the probe and dyes are intact, reporter dye emission is quenched by the proximity of the 3' quencher dye. During amplification, annealing of the probe to the target sequence creates a substrate that can be cleaved by the 5'-exonuclease activity of Taq polymerase. […] With each cycle, additional reporter dye molecules are cleaved from their respective probes, and the fluorescence intensity is monitored at regular intervals by laser optics built into the ABI PRISM™ 7700 Sequence Detection System. In each assay, a series of parallel reactions containing serial dilutions of mRNA from untreated control samples generates a standard curve that is used to quantitate the percent inhibition after antisense oligonucleotide treatment of test samples.
PCR reagents were obtained from PE-Applied Biosystems, Foster City, Calif. […]

[1] = Table 1, phosphorothioate oligodeoxynucleotides, averages from two experiments
[2] = Table 2, chimeric phosphorothioate 2'-MOE gapmers, averaged from two experiments

Substance | % Inhibition of PKA catalytic subunit C-alpha mRNA levels [1] [%] | % Inhibition of PKA catalytic subunit C-alpha mRNA levels [2] [%]
102436 (antisense TGGCTGCGGCCGGCGGCCCG; chemistry not given here) [compound 102436] | 49 | 
102438 (antisense GCGGCGGGTGCTGGCTGCGG; chemistry not given here) [compound 102438] | 15 | 
102440 (antisense TCGCGGCGGCGGCGGCCGGG; chemistry not given here) [compound 102440] | 19 | 
102442 (antisense CATCGCGGCGGCGGCGGCCG; chemistry not given here) [compound 102442] | 49 | 
102444 (antisense CCCATCGCGGCGGCGGCGGC; chemistry not given here) [compound 102444] | 47 | 
102446 (antisense TGCCCATCGCGGCGGCGGCG; chemistry not given here) [compound 102446] | 29 | 
102448 (antisense GTTGCCCATCGCGGCGGCGG; chemistry not given here) [compound 102448] | 47 | 
102450 (antisense GCGTTGCCCATCGCGGCGGC; chemistry not given here) [compound 102450] | 64 | 
102454 (antisense CGGCGTTGCCCATCGCGGCG; chemistry not given here) [compound 102454] | 53 | 
102458 (antisense GGCGGCGTTGCCCATCGCGG; chemistry not given here) [compound 102458] | 69 | 
102462 (antisense GCGGCGGCGTTGCCCATCGC; chemistry not given here) [compound 102462] | 67 | 
102466 (antisense CGGCGGCGGCGTTGCCCATC; chemistry not given here) [compound 102466] | 79 | 
102470 (antisense GGCGGCGGCGGCGTTGCCCA; chemistry not given here) [compound 102470] | 49 | 
102474 (antisense ATTCTTTCACGCTCTCCTGC; chemistry not given here) [compound 102474] | 3 | 
102478 (antisense CAAACTGATCCAAGTGGGCT; chemistry not given here) [compound 102478] | 73 | 
102482 (antisense CCAGCATCACCCGCCCGAAG; chemistry not given here) [compound 102482] | 66 | 
102486 (antisense CTTCTGTTTGTCGAGGATCT; chemistry not given here) [compound 102486] | 51 | 
102490 (antisense GCTTGCAGGATGCGCTTTTC; chemistry not given here) [compound 102490] | 66 | 
102494 (antisense GTTGTCCTTGAAGGAGAACT; chemistry not given here) [compound 102494] | 0 | 
102498 (antisense GAACATCTCCCCGCCGGGCA; chemistry not given here) [compound 102498] | 13 | 
102502 (antisense TAGATGAGATCCAGCGAGTG; chemistry not given here) [compound 102502] | 28 | 
102506 (antisense GCGGCCCTTCACGCGCTTGG; chemistry not given here) [compound 102506] | 0 | 

Substance | % Inhibition of PKA catalytic subunit C-alpha mRNA levels [1] [%] | % Inhibition of PKA catalytic subunit C-alpha mRNA levels [2] [%]
102510 (antisense TCTGCGAAGAAGGGCGGGTA; chemistry not given here) [compound 102510] | 0 | 
102514 (antisense TCCTTCAAGTCAGAGCTGAA; chemistry not given here) [compound 102514] | 44 | 
102518 (antisense AAACCACTTGTGGTTCTTGA; chemistry not given here) [compound 102518] | 34 | 
102522 (antisense CTTCCTCATAGTCGTCAAAG; chemistry not given here) [compound 102522] | 32 | 
102526 (antisense GGCATGCCCCTAAAACTCAG; chemistry not given here) [compound 102526] | 45 | 
102530 (antisense GGAGCAGCTGGTGTTTCTGT; chemistry not given here) [compound 102530] | 39 | 
102534 (antisense TTGGCGCTTCGTTCATTTGC; chemistry not given here) [compound 102534] | 39 | 
102538 (antisense AAGCAACCCACTGAACATGT; chemistry not given here) [compound 102538] | 38 | 
102543 (antisense GCTTCTCTTTAAAATGGATT; chemistry not given here) [compound 102543] | 16 | 
102547 (antisense ACCCTCGCAGGATTGGCAGA; chemistry not given here) [compound 102547] | 53 | 
102553 (antisense CGCTGCTGGGAGGAAAGACT; chemistry not given here) [compound 102553] | 52 | 
102558 (antisense TGCAGGGATGCCCTCCCCAC; chemistry not given here) [compound 102558] | 65 | 
102563 (antisense CCTTGAACCCCGGGCCGTGG; chemistry not given here) [compound 102563] | 56 | 
102568 (antisense CAGGCAGCCCCTCCCCAGCA; chemistry not given here) [compound 102568] | 49 | 
102573 (antisense AGCACAAATGAGAAAGTGGG; chemistry not given here) [compound 102573] | 7 | 
102579 (antisense TGGCTCCCCAGCGGCTCCCC; chemistry not given here) [compound 102579] | 36 | 
102584 (antisense CACACAGGTTGAATCGCCCC; chemistry not given here) [compound 102584] | 61 | 
102589 (antisense TAGTTTTCAAATATGTTTAC; chemistry not given here) [compound 102589] | 0 | 
102594 (antisense TGGCTGCGGCCGGCGGCCCG; chemistry not given here) [compound 102594] |  | 55
102599 (antisense GCGGCGGGTGCTGGCTGCGG; chemistry not given here) [compound 102599] |  | 77
102604 (antisense TCGCGGCGGCGGCGGCCGGG; chemistry not given here) [compound 102604] |  | 70
102609 (antisense CATCGCGGCGGCGGCGGCCG; chemistry not given here) [compound 102609] |  | 66
